Results: patent publication US20250122253A1, “REGULATING MICROTUBULE DYNAMICS AS A THERAPEUTIC TARGET FOR NERVE REPAIR” (City University of Hong Kong, priority 2023, published 2025)

System: gastrocnemius and interosseous muscles
Assay: Electromyography (EMG) recording of CMAP amplitude
Type: in vivo, mice
Procedure: Electromyography (EMG) recording was performed on anesthetized mice as described. Briefly, mice were anesthetized with ketamine (100 mg/kg)/xylazine (10 mg/kg), and placed on a heat pad set to 37° C. to avoid hypothermia during the course of EMG recordings. Baseline EMG were recorded before sciatic nerve crush injury using custom-made monopolar Teflon-coated electrodes. Following sciatic nerve crush injury, EMG were recorded on a weekly basis for one month (days 7, 14, 21 and 28). For EMG recordings of proximal gastrocnemius muscle, recording electrode was inserted into the gastrocnemius muscle, and Achilles tendon electrode as a reference. For EMG recordings of distal interosseous muscle, recording electrode and reference electrode was inserted into first and fourth muscle of the same paw, respectively. Sciatic nerve was then stimulated proximally or distally, and both proximal and distal stimulations were used for CMAP of interosseous muscle. Only proximal stimulation was used for CMAP of the gastrocnemius muscle. The mean CMAP amplitude was recorded (Blackrock microsystem, USA) and calculated (Spike 2, UK).
To examine the therapeutic potential of metaxalone, adult mice received daily intraperitoneal injection of metaxalone at 10 mg/kg immediately after injury for 21 consecutive days (i.e., metaxalone treatment) or delaying daily intraperitoneal injection of metaxalone at 10 mg/kg to 24 hours post-injury for 20 consecutive days (i.e., delayed metaxalone treatment), and all metaxalone treatments ended on day 21 post-injury. The mice were then subjected to sensory and motor function recovery tests and weekly EMG recordings for 28 days post-injury.

Cc1cc(C)cc(OCC2CNC(=O)O2)c1 (stereo not shown) [metaxalone]
muscle activities in proximal gastrocnemius vs vehicle controls, delayed treatment (delayed treatment, week 1 to 3 post-injury): significant improvement | muscle activity in interosseous muscles vs vehicle controls, delayed treatment (delayed treatment, week 2-3 post-injury): significant increase | muscle activity in most distal interosseous muscles vs vehicle controls (immediate treatment, first 3 weeks post-injury): reached significance levels | muscle activities in proximal gastrocnemius vs vehicle controls (immediate treatment, week 1 to 3 post-injury): significant improvement
